Measured values from US10166202B2, “Treatment of hepatic encephalopathy and liver cirrhosis” (Yissum Research Development Company of the Hebrew …, priority 2006, dated 2019).
“Also recorded” adds a separate entry of the source.

Legend:
[1] = test system: TAA treated mice; experiment: Liver function analysis of blood plasma in TAA treated mice; type: in vivo
[2] = test system: TAA treated mice; details: mouse, in vivo
[3] = test system: TAA treated CB2-KO mice; experiment: Blood ALT and AST levels in TAA treated CB2-KO mice; type: in vivo
Experimental: (ii) Mice. Eight- to 10-week old female Sabra mice (29-32 g), obtained from the animal facility of the Hebrew University, Israel, were assigned at random to different groups of 10 mice per cage and were used in all experiments. All cages contained wood-chip bedding and were placed in a temperature-controlled room at 22° C., on a 12 h light/dark cycle (lights on at 07.00 a.m.). The mice had free access to water 24 h a day. The food provided was Purina chow, the animals were maintained in the animal facility (SPF unit) of the Hebrew University Hadassah Medical School, Jerusalem. CB-2 KO mice were provided by Prof. Zimmer, Institute of Molecular Psychiatry, University of Bonn, Germany.
(xi) Liver function analysis. Ammonia, bilirubin, ALT, AST, GGT and glucose were analyzed using standard analytical methods in the Hadassah Hospital Biochemistry Department, Jerusalem, Israel.

[4] = test system: BDL mice; experiment: Cognitive function in chronic liver failure induced by bile duct ligation (BDL); type: in vivo; details: BDL mice relative to sham; cannabidiol 5 mg/kg i.p. daily, evaluated 2 weeks post-surgery
[5] = test system: BDL mice; experiment: Motor function in chronic liver failure induced by bile duct ligation (BDL); type: in vivo; details: BDL mice relative to sham; cannabidiol 5 mg/kg i.p. daily, evaluated 2 weeks post-surgery
[6] = test system: AMPK; experiment: Hippocampal AMPK phosphorylation (immunoblot) in TAA-induced liver failure mice; type: in vivo
[7] = test system: dopamine; experiment: Brain catecholamine (dopamine) measurement by HPLC-ECD in TAA treated mice; type: in vivo
Experimental: (vi) Catecholamine measurements. Catecholamines were measured as described previously (Avraham et al, 1996). The assay for dopamine was performed by High Pressure Liquid Chromatography (HPLC) separation and detection using HPLC-electrochemical detection (ECD). Values are presented as concentration (ng/g tissue).

[8] = test system: glial cells; set-up: species or system mice; details: mouse, in vivo
[9] = test system: AMPK; experiment: Hippocampal AMPK phosphorylation (immunoblot) in control mice; type: in vivo; details: for hippocampal AMPK phosphorylation (activated AMPK): control mice
[10] = test system: TAA treated mice; experiment: Eight-arm maze (cognitive function) in TAA treated mice; type: in vivo
[11] = test system: TAA treated mice; experiment: Activity test in TAA treated mice; type: in vivo
[12] = test system: TAA treated mice; experiment: Neurological score in TAA treated mice; type: in vivo
[13] = test system: CB1 and the CB2 receptors; details: previously known; cited from earlier work
[14] = test system: IL-1β mRNA; experiment: Hippocampal IL-1β mRNA level by RT-PCR in BDL mice; type: in vivo; details: cannabidiol 5 mg/kg i.p. daily for 3 weeks
[15] = test system: malondialdehyde; experiment: Oxidative stress (malondialdehyde) in liver tissue of BDL mice; type: in vivo; details: cannabidiol 5 mg/kg i.p. daily

For `CCCCC/C=C\C/C=C\C/C=C\C/C=C\CCCC(=O)OC(CO)CO` [2-AG, 2-arachidonoylglycerol], the “alanine transaminase (ALT) level” value ([1]; mouse, in vivo) was “significantly reduced”, the “aspartate aminotransferase (AST) level” value ([1]; mouse, in vivo) was “significantly reduced” and the “influence of the co-administered agent on the other agent's reduction of ALT and AST levels” value ([1]; mouse, in vivo) was “did not counteract the effect of SR141716A or SR144528”. For the same compound, the “Inflammation (frequency of cells in the liver)” value (from here on “Inflammation”) [2] was “Decreased”, the “Regeneration (frequency of cells in the liver)” value (shortened to “Regeneration”) [2] was “Increased” and the ALT level [3] was “modestly but significantly reduced”. For the same compound, the AST level [3] was “effective in reducing its level”, the “cognitive impairment (eight arm maze AUC)” value [4] was “effectively reversed” and the “motor impairment (motor activity)” value [5] was “failed to reverse”.

In the case of `NC(=O)c1ncn([C@@H]2O[C@H](CO)[C@@H](O)[C@H]2O)c1N` [AICAR, 5-aminoimidazole-4-carboxamide ribonucleoside], the AMPK activation ([6]; TAA treated mice, AICAR treatment) is reported as “augmented AMPK activation”, the brain dopamine concentration [7] is reported as “restored levels to normal” and the “alanine transaminase (ALT) level” value ([1]; TAA treated mice, blood) is reported as “Neither AICAR nor THC ameliorated these markers”. The “aspartate aminotransferase (AST) level” value ([1]; TAA treated mice, blood) was “Neither AICAR nor THC ameliorated these markers”, the ammonia level ([1]; TAA treated mice, blood plasma) was “no effect” and the bilirubin level ([1]; TAA treated mice, blood plasma) was “Neither AICAR nor THC ameliorated these markers”. For the same compound, the “gamma-glutamyltransferase (GGT) level” value ([1]; TAA treated mice, blood plasma) was “Neither AICAR nor THC ameliorated these markers”.

For `CCCCCCC(C)(C)c1cc(OC)c([C@@H]2C=C(CO)[C@@H]3C[C@H]2C3(C)C)c(OC)c1` [HU-308], the “alanine transaminase (ALT) level” value ([1]; TAA treated mice, blood) was “significantly reduced”, the “aspartate aminotransferase (AST) level” value ([1]; TAA treated mice, blood) was “significantly reduced” and the “influence of the co-administered agent on the other agent's reduction of ALT and AST levels” value ([1]; TAA treated mice, co-administration) was “did not counteract the effect of SR144528”. The “Inflammation” value [2] was “reduced; also recorded: Decreased”, the “Regeneration” value [2] was “Increased” and the “astrogliosis, direction of change (GFAP staining, hippocampus)” value (“astrogliosis, direction of change” below) [8] was “prevented; also recorded: Decrease (p < 0.001)”.

For `Cc1c(C(=O)NN2CCCCC2)nn(-c2ccc(Cl)cc2Cl)c1-c1ccc(Cl)cc1` [SR141716A], the “alanine transaminase (ALT) level” value ([1]; mouse, in vivo) was “significantly reduced”, the “aspartate aminotransferase (AST) level” value ([1]; mouse, in vivo) was “significantly reduced” and the “Inflammation” value [2] was “reduced; also recorded: Decreased”. For the same compound, the “Regeneration” value [2] was “Increased”, the AST level [3] was “effective in reducing its level” and the “influence of co-administration on the ALT effect of 2-AG” value ([3]; 2-AG + SR141716A) was “blocked the effect of 2-AG”. The “influence of co-administration on the AST effect of 2-AG” value ([3]; 2-AG + SR141716A) was “abolished the effect of 2-AG” and the “astrogliosis, direction of change” value [8] was “prevented; also recorded: Decrease (p < 0.001)”.

With `CCCCCc1cc(O)c2c(c1)OC(C)(C)[C@@H]1CCC(C)=C[C@@H]21` [THC, (−)-(6aR,10aR)-6,6,9-trimethyl-3-pentyl-6a,7,8,10a-tetrahydro-6H-benzo[c]chromen-1-ol] the “hippocampal AMPK phosphorylation (activated AMPK)” value (shortened to “hippocampal AMPK phosphorylation”) ([9]; higher concentrations of THC (up to 10 mg/kg)) was “dose dependent elevation in activated enzyme”, the “hippocampal AMPK phosphorylation” value ([9]; low levels of THC (less than 0.1 mg/kg)) was “reduced the level of activated AMPK” and the “quantity of THC required to activate AMPK” value ([9]; healthy animals) was 10 mg/kg. For the same compound, the “hippocampal AMPK phosphorylation” value ([6]; TAA treated mice, 0.01 mg/kg THC) was “inactivating effect”, the “AMPK activation in brain at end of behavioral studies” value ([6]; TAA treated mice, 0.1 mg/kg THC daily for 5 days, 0.1 mg/kg) was “activates AMPK; also recorded: Amplification of AMPK activation” and the “hippocampal AMPK phosphorylation” value ([6]; TAA treated mice, 0.1 mg/kg THC, 0.1 mg/kg) was “AMPK activation was achieved; also recorded: augmented AMPK activation”. For the same compound, the “quantity of THC required to activate AMPK” value ([6]; experimental hepatic encephalopathy animals) was 0.1 mg/kg, the “TAA-induced impaired cognitive function (eight arm maze)” value [10] was “improved significantly” and the activity performance [11] was “restored”. For the same compound, the neurological score [12] was “improved”, the brain dopamine concentration [7] was “restored levels to normal” and the “alanine transaminase (ALT) level” value ([1]; mouse, in vivo) was “Neither AICAR nor THC ameliorated these markers”. The ammonia level ([1]; mouse, in vivo) was “no effect”, the “aspartate aminotransferase (AST) level” value ([1]; mouse, in vivo) was “Neither AICAR nor THC ameliorated these markers” and the bilirubin level ([1]; mouse, in vivo) was “Neither AICAR nor THC ameliorated these markers”. For the same compound, the “gamma-glutamyltransferase (GGT) level” value ([1]; mouse, in vivo) was “Neither AICAR nor THC ameliorated these markers” and the “affinity to CB1 versus CB2 receptors” value [13] was “about equal affinity”.

With `C=C(C)[C@@H]1CCC(C)=C[C@H]1c1c(O)cc(CCCCC)cc1O` [cannabidiol] the “cognitive impairment (eight arm maze AUC)” value [4] was “restored; also recorded: reversed”, the “motor impairment (motor activity)” value [5] was “restored; also recorded: reversed” and the “IL-1β mRNA level in the hippocampus (normalized to L19 mRNA)” value [14] was “restored; also recorded: reversed”. For the same compound, the “oxidative stress in the liver (malondialdehyde)” value [15] was “restored; also recorded: reversed”.

In the case of `COc1cc(CNC(=O)CCCC/C=C/C(C)C)ccc1O` [capsaicin], the “TAA-induced impaired cognitive function (eight arm maze)” value [10] is reported as “improved significantly; also recorded: significantly improves”, the activity performance [11] is reported as “restored; also recorded: significantly improves” and the neurological score [12] is reported as “improved; also recorded: significantly improves”. The “alanine transaminase (ALT) level” value ([1]; TAA treated mice, blood) was “significantly reduces”, the “aspartate aminotransferase (AST) level” value ([1]; TAA treated mice, blood) was “significantly reduces” and the “Apoptosis (frequency of cells showing apoptosis/necrosis in the liver)” value [2] was “amelioration of TAA-induced apoptosis/necrosis reached statistical significance; also recorded: Decreased”. The “Inflammation” value [2] was “Decreased”, the “Regeneration” value [2] was “significantly less hepatic regeneration; also recorded: Decreased” and the “astrogliosis, direction of change” value [8] was “prevented; also recorded: reduced astrogliosis; also recorded: minimal; also recorded: Decrease (p < 0.001)”.

In the case of `Oc1cc2c(cc1O)CN(C(=S)NCCc1ccc(Cl)cc1)CCC2` [capsazepine], the “influence of the co-administered agent on the other agent's reduction of ALT and AST levels” value ([1]; mouse, in vivo) is reported as “abolishment of the effect of capsaicin”.

For SR144528, the “alanine transaminase (ALT) level” value ([1]; TAA treated mice, blood) was “significantly reduced”, the “aspartate aminotransferase (AST) level” value ([1]; TAA treated mice, blood) was “significantly reduced” and the “Inflammation” value [2] was “non-significant changes”. For the same compound, the “Regeneration” value [2] was “Increased”.
